Results taken from US20110301087A1, “CRF1 RECEPTOR COMPOUNDS” (priority 2008, published 2011).
Where a SMILES comes first, the peptide text is derived from it. [ ]: non-standard residue; d: D form. The star is where a group is joined. Palmitoyl = CCCCCCCCCCCCCCCC(=O)*; Nle = CCCC[C@H](N)C(=O)O

Target: T1, CRF1 (Homo sapiens, UniProt P34998)
T1 construct: endogenously expresses functional CRF1; endogenous in cells; host or cells: Y-79 human retinoblastoma cells
T1 sequence (P34998 24-415): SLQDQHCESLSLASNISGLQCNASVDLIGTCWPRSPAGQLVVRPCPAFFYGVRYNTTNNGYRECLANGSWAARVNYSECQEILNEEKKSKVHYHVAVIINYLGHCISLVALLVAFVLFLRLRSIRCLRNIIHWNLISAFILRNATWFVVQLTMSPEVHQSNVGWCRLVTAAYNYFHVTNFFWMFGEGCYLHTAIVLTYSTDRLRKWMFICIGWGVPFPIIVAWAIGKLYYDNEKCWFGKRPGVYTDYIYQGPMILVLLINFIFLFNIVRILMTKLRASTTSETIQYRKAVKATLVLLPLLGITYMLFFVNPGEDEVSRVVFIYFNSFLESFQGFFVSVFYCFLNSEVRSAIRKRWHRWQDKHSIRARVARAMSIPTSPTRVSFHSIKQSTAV
Test: CRF1 assessment of cAMP (HTRF cAMP assay) in Y-79 cells, antagonist mode
Assay type: cell-based
Conditions: Y79 cells; for IC50: CRF1 cAMP screening, against agonist; for inhibition at 0.3 µM: 300 nM pepducin against agonist dose response, read-out: % Inhibition (± SD)
Excerpt: HTRF (homogeneous time resolved fluorescence) is a technology developed by Cisbio Bioassays based on TR-FRET (time-resolved fluorescence resonance energy transfer). Cisbio Bioassays has developed a wide selection of HTRF-based assays compatible with whole cells, thereby enabling functional assays run under more physiological conditions. cAMP kits are based on a competitive immunoassay using cryptate-labeled anti-cAMP antibody and d2-labeled cAMP. This assay allows the measurement of increase in intracellular cAMP upon Gs-coupled receptor activation as well as decrease in forskolin stimulated increase in cAMP upon Gi-coupled receptor activation. Cells expressing CRF1 endogenously or via transfection can be used to assess compound pharmacology using cAMP assays as a means to measure the activity of adenylyl cyclase resulting from CRF1 activation or inhibition.
An example of the use of the cAMP assay can be assessing CRF activation of CRF1 in Y-79, a human retinoblastoma cell line which endogenously expresses functional CRF1. Y-79 cells were seeded into 96-well half area black plates at 30K/well in Hank's balanced salt solution with 50 mM HEPES, 0.1% BSA, 200 uM IBMX. Compounds to be tested for agonist activity were added to cells, incubated for 30 minutes at 37 degrees C. and assayed for cAMP concentration. To test for antagonist activity, compounds to be tested were added to cells, followed by the addition of agonist at an experimentally determined optimal concentration, generally the EC80. Plates were incubated for 30 minutes at 37 degrees C. and assayed for cAMP. To determine concentration of cAMP in each well, d2-labeled cAMP in Conjugate/Lysis buffer was added to wells. This addition lysed the cells and input a known concentration of labeled cAMP. This was followed by the addition of anti-cAMP antibody conjugated to cryptate. FRET occurs when cryptate-labeled antibody binds to d2-labeled cAMP. Therefore, the specific signal is inversely proportional to the concentration of cAMP in the sample. Conversion of signal to concentration of cAMP in the well was accomplished by comparing the FRET signal of sample to a standard curve generated using known concentrations of cAMP.

IC50 [µM]	inhibition at 0.3 µM [%]	SMILES
1 to 5	55 ± 13	CCCCCCCCCCCCCCCC(=O)NCC(=O)N[C@@H](CO)C(=O)N[C@H](C(=O)N[C@@H](CCCNC(=N)N)C(=O)N[C@@H](C)C(=O)N[C@@H](CCCNC(=N)N)C(=O)N[C@H](C(=O)N[C@@H](C)C(=O)N[C@@H](CCCNC(=N)N)C(=O)N[C@@H](C)C(=O)N[C@@H](CCSC)C(N)=O)C(C)C)[C@@H](C)CC [Compound 64] (Palmitoyl-GSIRARVARAM-NH2)
	50 ± 14	CCCCCCCCCCCCCCCC(=O)NCC(=O)N[C@@H](CO)C(=O)N[C@H](C(=O)N[C@@H](CC(=O)O)C(=O)N[C@@H](CCCNC(=N)N)C(=O)N[C@@H](CC(C)C)C(=O)N[C@@H](CCCNC(=N)N)C(=O)N[C@@H](CCCCN)C(=O)N[C@@H](C)C(=O)N[C@@H](CCCC)C(=O)N[C@@H](Cc1ccccc1)C(=O)N[C@H](C(N)=O)[C@@H](C)CC)[C@@H](C)O [Compound 53] (Palmitoyl-GSTDRLRKA[Nle]FI-NH2)
0.501 to 1	35	CCCCCCCCCCCCCCCC(=O)N[C@@H](CCCNC(=N)N)C(=O)N[C@H](C(=O)N[C@@H](CC(C)C)C(=O)N[C@@H](CCSC)C(=O)N[C@H](C(=O)N[C@@H](CCCCN)C(=O)N[C@@H](CC(C)C)C(=O)N[C@@H](CCCNC(=N)N)C(=O)N[C@@H](C)C(=O)N[C@@H](CO)C(=O)N[C@H](C(=O)N[C@H](C(=O)N[C@@H](CO)C(N)=O)[C@@H](C)O)[C@@H](C)O)[C@@H](C)O)[C@@H](C)CC [Compound 58, Pal-RILMTKLRASTTS-amide] (Palmitoyl-RILMTKLRASTTS-NH2)
1 to 5	52 ± 5	CCCCCCCCCCCCCCCC(=O)NCC(=O)N[C@@H](CO)C(=O)N[C@@H](CCCNC(=N)N)C(=O)N[C@@H](CC(C)C)C(=O)N[C@@H](CCCNC(=N)N)C(=O)N[C@@H](CCCCN)C(=O)N[C@@H](Cc1c[nH]c2ccccc12)C(=O)N[C@@H](CCSC)C(=O)N[C@@H](Cc1ccccc1)C(=O)N[C@H](C(N)=O)[C@@H](C)CC [Compound 28] (Palmitoyl-GSRLRKWMFI-NH2)
> 10	58	CCCCCCCCCCCCCCCC(=O)N[C@H](C(=O)N[C@@H](CC(=O)O)C(=O)N[C@@H](CCCNC(=N)N)C(=O)N[C@@H](CC(C)C)C(=O)N[C@@H](CCCNC(=N)N)C(=O)N[C@@H](CCCCN)C(=O)N[C@@H](C)C(=O)N[C@@H](CCSC)C(=O)N[C@@H](Cc1ccccc1)C(=O)N[C@H](C(N)=O)[C@@H](C)CC)[C@@H](C)O [Compound 50] (Palmitoyl-TDRLRKAMFI-NH2)
1 to 5	50	CCCCCCCCCCCCCCCC(=O)N[C@@H](C)C(=O)N[C@@H](CO)C(=O)N[C@H](C(=O)N[C@H](C(=O)N[C@@H](CO)C(=O)N[C@@H](CCC(=O)O)C(=O)N[C@H](C(=O)N[C@H](C(=O)N[C@@H](CCC(N)=O)C(=O)N[C@@H](Cc1ccc(O)cc1)C(=O)N[C@@H](CCCNC(=N)N)C(=O)N[C@@H](CCCCN)C(=O)N[C@@H](C)C(=O)N[C@H](C(=O)N[C@@H](CCCCN)C(=O)N[C@@H](CO)C(N)=O)C(C)C)[C@@H](C)CC)[C@@H](C)O)[C@@H](C)O)[C@@H](C)O [Compound 62] (Palmitoyl-ASTTSETIQYRKAVKS-NH2)
1 to 5	63	CCCCCCCCCCCCCCCC(=O)NCC(=O)N[C@@H](CO)C(=O)NCC(=O)N[C@@H](CCCNC(=N)N)C(=O)N[C@@H](CC(C)C)C(=O)N[C@@H](CCCNC(=N)N)C(=O)N[C@@H](CCCCN)C(=O)N[C@@H](Cc1c[nH]c2ccccc12)C(=O)N[C@@H](CCSC)C(=O)N[C@@H](Cc1ccccc1)C(=O)N[C@H](C(N)=O)[C@@H](C)CC [Compound 26] (Palmitoyl-GSGRLRKWMFI-NH2)
> 10	42	CCCCCCCCCCCCCCCC(=O)N[C@H](C(=O)N[C@@H](CC(=O)O)C(=O)N[C@@H](CCCNC(=N)N)C(=O)N[C@@H](CC(C)C)C(=O)N[C@@H](CCCNC(=N)N)C(=O)N[C@@H](C)C(=O)N[C@@H](Cc1c[nH]c2ccccc12)C(=O)N[C@@H](CCSC)C(=O)N[C@@H](Cc1ccccc1)C(=O)N[C@H](C(N)=O)[C@@H](C)CC)[C@@H](C)O [Compound 49] (Palmitoyl-TDRLRAWMFI-NH2)
0.501 to 1	53 ± 14	CCCCCCCCCCCCCCCC(=O)NCC(=O)N[C@@H](CO)C(=O)N[C@H](C(=O)N[C@@H](CC(=O)O)C(=O)N[C@@H](CCCNC(=N)N)C(=O)N[C@@H](CC(C)C)C(=O)N[C@@H](CCCNC(=N)N)C(=O)N[C@@H](CCCCN)C(=O)N[C@@H](Cc1c[nH]c2ccccc12)C(=O)N[C@@H](CCSC)C(=O)N[C@@H](Cc1ccccc1)C(=O)N[C@H](C(N)=O)[C@@H](C)CC)[C@@H](C)O [Compound 29, Pal-GSTDRLRKWMFI-amide] (Palmitoyl-GSTDRLRKWMFI-NH2)
1 to 5	36 ± 9	CCCCCCCCCCCCCCCC(=O)N[C@@H](CO)C(=O)N[C@H](C(=O)N[C@@H](CC(=O)O)C(=O)N[C@@H](CCCNC(=N)N)C(=O)N[C@@H](CC(C)C)C(=O)N[C@@H](CCCNC(=N)N)C(=O)N[C@@H](CCCCN)C(=O)N[C@@H](Cc1c[nH]c2ccccc12)C(=O)N[C@@H](CCSC)C(=O)N[C@@H](Cc1ccccc1)C(=O)N[C@H](C(N)=O)[C@@H](C)CC)[C@@H](C)O [Compound 33] (Palmitoyl-STDRLRKWMFI-NH2)
1 to 5	54 ± 13	CCCCCCCCCCCCCCCC(=O)N[C@@H](CCCNC(=N)N)C(=O)N[C@@H](CC(C)C)C(=O)N[C@@H](CCCNC(=N)N)C(=O)N[C@@H](CO)C(=O)N[C@H](C(=O)N[C@@H](CCCNC(=N)N)C(=O)N[C@@H](CO)C(=O)N[C@@H](CC(C)C)C(=O)N[C@@H](CCCNC(=N)N)C(=O)N[C@@H](CC(N)=O)C(=O)N[C@H](C(=O)N[C@H](C(=O)N[C@@H](Cc1c[nH]cn1)C(=O)N[C@@H](Cc1c[nH]c2ccccc12)C(=O)N[C@@H](CC(N)=O)C(N)=O)[C@@H](C)CC)[C@@H](C)CC)[C@@H](C)CC [Compound 5] (Palmitoyl-RLRSIRSLRNIIHWN-NH2)
5 to 10	65	CCCCCCCCCCCCCCCC(=O)N[C@@H](CC(=O)O)C(=O)N[C@@H](CCCNC(=N)N)C(=O)N[C@@H](CC(C)C)C(=O)N[C@@H](CCCNC(=N)N)C(=O)N[C@@H](CCCCN)C(=O)N[C@@H](Cc1c[nH]c2ccccc12)C(=O)N[C@@H](CCSC)C(=O)N[C@@H](C)C(=O)N[C@H](C(N)=O)[C@@H](C)CC [Compound 42] (Palmitoyl-DRLRKWMAI-NH2)
> 10	48	CCCCCCCCCCCCCCCC(=O)N[C@H](C(=O)N[C@@H](CC(=O)O)C(=O)N[C@@H](CCCNC(=N)N)C(=O)N[C@@H](CC(C)C)C(=O)N[C@@H](CCCNC(=N)N)C(=O)N[C@@H](CCCCN)C(=O)N[C@@H](Cc1c[nH]c2ccccc12)C(=O)N[C@@H](CCSC)C(=O)N[C@@H](C)C(=O)N[C@H](C(N)=O)[C@@H](C)CC)[C@@H](C)O [Compound 43] (Palmitoyl-TDRLRKWMAI-NH2)
1 to 5	60 ± 8	CCCCCCCCCCCCCCCC(=O)NCC(=O)N[C@@H](CO)C(=O)N[C@H](C(=O)N[C@@H](CC(=O)O)C(=O)N[C@@H](CCCNC(=N)N)C(=O)N[C@@H](CC(C)C)C(=O)N[C@@H](CCCNC(=N)N)C(=O)N[C@@H](CCCCN)C(=O)N[C@@H](Cc1c[nH]c2ccccc12)C(=O)N[C@@H](CCSC)C(=O)N[C@@H](C)C(=O)N[C@H](C(N)=O)[C@@H](C)CC)[C@@H](C)O [Compound 38] (Palmitoyl-GSTDRLRKWMAI-NH2)
